Test results as given in US8987456B2, “3-pyridyl carboxamide-containing spleen tyrosine kinase (SYK) inhibitors” (Merck Sharp & Dohme Corp., priority 2011, dated 2015).
Where two headings read alike, the source gives them in different places.

Legend:
allergic rhinitis [1] = settings: dosed intranasally, phase I/II study; cited from earlier work
allergic rhinitis [2] = settings: phase II clinical trial; cited from earlier work
[3] = target: T1, recombinant human GST-SYK (Homo sapiens, UniProt P43405); assay: Homogeneous Time-Resolved Fluorescence (HTRF) assay for the recombinant human Syk enzyme; assay type: biochemical; settings: 5 pM GST-SYK, 25 μM ATP, 10-dose titration
T1 construct: purchased Carna Biosciences 08-176
Method: Biological Assay Homogeneous Time-Resolved Fluorescence (HTRF) Assay for the Recombinant Human Syk Enzyme
A recombinant GST-hSYK fusion protein was used to measure potency of compounds to inhibit human Syk activity. […] Final volume of the reaction was 10 μL. Phosphorylation of the peptide was allowed to proceed for 45′ at room temperature. To quench the reaction and detect the phosphorylated product, 2 nM of a Europium-anti-phosphotyrosine antibody (Perkin Elmer #AD0161) and 70 nM SA-APC (Perkin-Elmer #CR130-100) were added together in 15 mM Tris pH 7.5, 40 mM EDTA, 0.01% tween 20. Final volume of the quenching solution was 10 μL. The resulting HTRF signal was measured after 30 minutes on an EnVision (Perkin-Elmer) reader using a time-resolved fluorescence protocol.

| Compound | IC50 ([3]; read-out: rhSYK Activity) | IC50 ([3]; read-out: IC50) | further results |
| --- | --- | --- | --- |
| Oc1cccc(Nc2ncc(F)c(Nc3cccc(O)c3)n2)c1 [Example R112] |  |  | PGD2 (allergic rhinitis [1]): statistically significant decrease; clinical safety (allergic rhinitis [1]): safe across a range of indicators; efficacy versus placebo (allergic rhinitis [2]): lack of efficacy versus placebo |
| NC(=O)c1cnc(N[C@@H]2CCCC[C@@H]2N)cc1Nc1ccc2ccccc2n1 [Example 1.6, 6-{[(1R,2S)-2-aminocyclohexyl]amino}-4-(quinolin-2-ylamino)pyridine-3-carboxamide] | < 10 nM | 5.8 nM |  |
| NC(=O)c1cnc(N[C@@H]2CCCC[C@@H]2N)cc1Nc1cccc(-n2nccn2)n1 [Example 1.4, 6-{[(1R,2S)-2-aminocyclohexyl]amino}-4-{[6-(2H-1,2,3-triazol-2-yl)pyridin-2-yl]amino}pyridine-3-carboxamide] | < 10 nM |  |  |
| Cc1cc(C)nc(Nc2cc(N[C@@H]3COC[C@H]3N)ncc2C(N)=O)c1 (relative stereo) [Example 2.4, rel-6-{[(3S,4S)-4-aminotetrahydrofuran-3-yl]amino}-4-[(4,6-dimethylpyridin-2-yl)amino]pyridine-3-carboxamide] | 1000 to 10000 nM |  |  |
| Cc1cccc(Nc2cc(NCCN)ncc2C(N)=O)n1 [Example 1.3, 6-[(2-aminoethyl)amino]-4-[(6-methylpyridin-2-yl)amino]pyridine-3-carboxamide] | 100 to 1000 nM | 170 nM |  |
| CCC(N)CNc1cc(Nc2cccc(C)n2)c(C(N)=O)cn1 (centres unmarked) [Example 2.1, 6-[(2-aminobutyl)amino]-4-[(6-methylpyridin-2-yl)amino]pyridine-3-carboxamide] | 100 to 1000 nM |  |  |
| Cc1cc(C)nc(Nc2cc(NCCN)ncc2C(N)=O)c1 [Example 2.2, 6-[(2-aminoethyl)amino]-4-[(4,6-dimethylpyridin-2-yl)amino]pyridine-3-carboxamide] | 10 to 100 nM |  |  |
| Cc1nc(Nc2cc(N[C@@H]3CCCC[C@@H]3N)ncc2C(N)=O)ccc1F [Example 1.7, 6-{[(1R,2S)-2-aminocyclohexyl]amino}-4-[(5-fluoro-6-methylpyridin-2-yl)amino]pyridine-3-carboxamide] | 10 to 100 nM |  |  |
| Cc1nc(Nc2cc(NC[C@H](C)N)ncc2C(N)=O)ccc1-c1cnn(C)c1 [Example 1.9, 6-{[(2S)-2-aminopropyl]amino}-4-{[6-methyl-5-(1-methyl-1H-pyrazol-4-yl)pyridin-2-yl]amino}pyridine-3-carboxamide] | < 10 nM |  |  |
| Cc1cc(C)nc(Nc2cc(NCC(N)C(F)(F)F)ncc2C(N)=O)c1 (racemic) [Example 2.3, 6-[(2-amino-3,3,3-trifluoropropyl)amino]-4-[(4,6-dimethylpyridin-2-yl)amino]pyridine-3-carboxamide] | 1000 to 10000 nM | 3500 nM |  |
| COC[C@H](N)CNc1cc(Nc2cccc(C)n2)c(C(N)=O)cn1 [Example 2.7, 6-{[(2R)-2-amino-3-methoxypropyl]amino}-4-[(6-methylpyridin-2-yl)amino]pyridine-3-carboxamide] | 100 to 1000 nM |  |  |
| Cc1cccc(Nc2cc(N[C@@H]3CCCC[C@@H]3N)ncc2C(N)=O)n1 [Example 1.2, 6-{[(1R,2S)-2-aminocyclohexyl]amino}-4-[(6-methylpyridin-2-yl)amino]pyridine-3-carboxamide] | 10 to 100 nM | 4.5 nM |  |
| Cc1cc(C)nc(Nc2cc(NCC3(N)CCOC3)ncc2C(N)=O)c1 (racemic) [Example 2.6, 6-{[(3-aminotetrahydrofuran-3-yl)methyl]amino}-4-[(4,6-dimethylpyridin-2-yl)amino]pyridine-3-carboxamide] | 1000 to 10000 nM |  |  |
| C[C@H](N)CNc1cc(Nc2cc(-c3cnn(C)c3)cc(-c3cnn(C)c3)n2)c(C(N)=O)cn1 [Example 1.8, 6-{[(2S)-2-aminopropyl]amino}-4-{[4,6-bis(1-methyl-1H-pyrazol-4-yl)pyridin-2-yl]amino}pyridine-3-carboxamide] | < 10 nM |  |  |
| Cc1cc(C)nc(Nc2cc(NCC3(N)CCOCC3)ncc2C(N)=O)c1 [Example 2.5] | 1000 to 10000 nM |  |  |
| NC(=O)c1cnc(N[C@@H]2CCCC[C@@H]2N)cc1Nc1cccc(C(F)(F)F)n1 [Example 1.1, 6-{[(1R,2S)-2-aminocyclohexyl]amino}-4-{[6-(trifluoromethyl)pyridin-2-yl]amino}pyridine-3-carboxamide] | < 10 nM | 3.5 nM |  |

Second part, led by results:

| IC50 ([3]; read-out: rhSYK Activity) | IC50 ([3]; read-out: IC50) | Compound | further results |
| --- | --- | --- | --- |
| 10 to 100 nM |  | Cc1cc(C)nc(Nc2cc(N[C@H]3[C@@H](N)CCCC3(F)F)ncc2C(N)=O)c1 [Example 3.3, 6-{[(1S,6S)-6-amino-2,2-difluorocyclohexyl]amino}-4-[(4,6-dimethylpyridin-2-yl)amino]pyridine-3-carboxamide] |  |
| 10 to 100 nM | 66 nM | Cc1nc(Nc2cc(NCCN)ncc2C(N)=O)ccc1Br [Example 2.13, 6-[(2-aminoethyl)amino]-4-[(5-bromo-6-methylpyridin-2-yl)amino]pyridine-3-carboxamide] |  |
| 100 to 1000 nM |  | CCC(C)(N)CNc1cc(Nc2cccc(C)n2)c(C(N)=O)cn1 (racemic) [Example 2.9, 6-[(2-amino-2-methylbutyl)amino]-4-[(6-methylpyridin-2-yl)amino]pyridine-3-carboxamide] |  |
| 1000 to 10000 nM | 3200 nM | Cc1cc(C)nc(Nc2cc(NC(C)CN)ncc2C(N)=O)c1 (racemic) [Example 2.10, 6-[(2-amino-1-methylethyl)amino]-4-[(4,6-dimethylpyridin-2-yl)amino]pyridine-3-carboxamide] |  |
| 10 to 100 nM |  | Cc1cc(C)nc(Nc2cc(NC[C@H](C)N)ncc2C(N)=O)c1 [Example 3.1, 6-{[(2S)-2-aminopropyl]amino}-4-[(4,6-dimethylpyridin-2-yl)amino]pyridine-3-carboxamide] |  |
| 100 to 1000 nM | 510 nM | Cc1cc(C)nc(Nc2cc(N[C@@H]3[C@H](N)CCCC3(F)F)ncc2C(N)=O)c1 [Example 3.2, 6-{[(1R,6R)-6-amino-2,2-difluorocyclohexyl]amino}-4-[(4,6-dimethylpyridin-2-yl)amino]pyridine-3-carboxamide] |  |
| 100 to 1000 nM |  | Cc1cccc(Nc2cc(NCC(N)C3CC3)ncc2C(N)=O)n1 (racemic) [Example 2.12, 6-[(2-amino-2-cyclopropylethyl)amino]-4-[(6-methylpyridin-2-yl)amino]pyridine-3-carboxamide] |  |
| 10 to 100 nM |  | CCCC(N)CNc1cc(Nc2cccc(C)n2)c(C(N)=O)cn1 (racemic) [Example 2.11, 6-[(2-aminopentyl)amino]-4-[(6-methylpyridin-2-yl)amino]pyridine-3-carboxamide] |  |
| 100 to 1000 nM |  | Cc1cccc(Nc2cc(N[C@@H]3CCCC[C@H]3N)ncc2C(N)=O)n1 (relative stereo) [Example 2.8, rel-6-{[(1R,2R)-2-aminocyclohexyl]amino}-4-[(6-methylpyridin-2-yl)amino]pyridine-3-carboxamide] |  |
